Consider seven molecules from patent publication US20180117110A1, “METHOD OF TREATING CANCER” (THE WALTER AND ELIZA HALL INSTITUTE OF MEDICAL RESEARCH, priority 2014, published 2018).

Data set [1] deals with Bone Marrow Derived Macrophages (BMDM). The data set is described as follows: BMDM cell viability (CellTiter-Glo) after SMAC mimetic Compound A ± p38 or MK2 inhibitor. Conditions: inhibitor 30 min then 500 nM Compound A, 24 h, dose dependent (FIG. 1C). It counts as cell-based, mouse. As to the method:
FIG. 1: p38 inhibitors increase TNFα production and cell death induced by SMAC mimetics. A. Bone Marrow Derived Macrophages (BMDM) were pretreated ±1 μM of the indicated p38 inhibitors for 30 min then treated with 500 nM of SMAC mimetic Compound A (CompA) for 24 h. TNFα production was measured by ELISA of supernatants. B. BMDM were pretreated 500 nM of SMAC mimetic Compound A, GT13072 or birinapant ±1 μM of LY2228820. TNFα production was measured by ELISA of supernatants. N=3 biological repeats and error bars are SEM. C. BMDM were pretreated ± the indicated dose of MK2 inhibitor PF-3644022 and the p38 inhibitor LY2228820, VX-702, TAK-715 or VX-745 for 30 min then treated with 500 nM of SMAC mimetic Compound A. Cell viability was measured after 24 h of treatment using CellTiter-Glo® (CTG) reagent. N=3 biological repeats and error bars are SEM.
BMDMs from C56/B16, p38α^LysMCre or Mk2^−/− were cultured for 6 days in DMEM+10% FBS (v/v)+20% L929 mouse fibroblasts (a source of macrophage colony stimulating factor), plated and assayed the following day. BMDMs cells were seeded and assayed in the presence of L929 conditioned medium. AML cells were cultured in IMDM +10% FBS (v/v)+2.5 ng/ml of IL-3. NCI-H929 cells were cultured in RPMI+10% FBS (v/v). Cell suspension from breast ER+ patient derived tumours was cultured in mammosphere media. After treatment with SMAC mimetic with or without kinases inhibitors cell viability was measured by staining with propidium iodide (2 μg/mL) or by using CellTiter-Glo® (Promega).
On the technique in general: Cellular ATP, detected with luciferase, serves as a proxy for viable cell number.

The test system is the same in data set [2]. The data set is described as follows: TNFα production by ELISA of supernatants of BMDM treated with SMAC mimetic ± p38 inhibitors (kinase inhibitors screen). It counts as cell-based, mouse. Conditions: 500 nM SMAC mimetic ± 1 μM LY2228820 (FIG. 1B). As to the method: FIG. 1: p38 inhibitors increase TNFα production and cell death induced by SMAC mimetics. A. Bone Marrow Derived Macrophages (BMDM) were pretreated ±1 μM of the indicated p38 inhibitors for 30 min then treated with 500 nM of SMAC mimetic Compound A (CompA) for 24 h. TNFα production was measured by ELISA of supernatants. B. BMDM were pretreated 500 nM of SMAC mimetic Compound A, GT13072 or birinapant ±1 μM of LY2228820. TNFα production was measured by ELISA of supernatants. N=3 biological repeats and error bars are SEM. C. BMDM were pretreated ± the indicated dose of MK2 inhibitor PF-3644022 and the p38 inhibitor LY2228820, VX-702, TAK-715 or VX-745 for 30 min then treated with 500 nM of SMAC mimetic Compound A. Cell viability was measured after 24 h of treatment using CellTiter-Glo® (CTG) reagent. N=3 biological repeats and error bars are SEM. BMDMs from C56/B16, p38α^LysMCre or Mk2^−/− were cultured for 6 days in DMEM+10% FBS (v/v)+20% L929 mouse fibroblasts (a source of macrophage colony stimulating factor), plated and assayed the following day. BMDMs cells were seeded and assayed in the presence of L929 conditioned medium. AML cells were cultured in IMDM +10% FBS (v/v)+2.5 ng/ml of IL-3. […] After treatment with SMAC mimetic with or without kinases inhibitors cell viability was measured by staining with propidium iodide (2 μg/mL) or by using CellTiter-Glo® (Promega). […]
In general terms: ELISA stands for enzyme-linked immunosorbent assay.

A further data set has as its system C57BL6 mice. Briefly: Tolerability of SMAC mimetic plus p38 inhibitor in non tumour-bearing mice. It counts as in vivo. The note with it: 5 mg/kg GT13072 + 15 mg/kg LY2228820 i.p. (FIG. 7C). As to the method: FIG. 7: Mice tolerate administration of birinapant plus p38 inhibitor. A. Mononuclear cells isolated from healthy donor by Ficoll sedimentation were treated for 48 h with indicated drugs. CD34^+ cell death was measured by staining with PI and flow cytometry. For each donor sample, graphs show mean of at least n=2 technical replicates across n=2-5 independent experiments. B and C. C57BL/6 mice were intra-peritoneally injected with vehicle (captisol 6%) or birinapant (B) or GT13072 (C) or LY2228820 or combination of LY2228820 and SM at indicated concentration. Mice received 8 injections twice a week over 4 weeks. Mice were euthanised 2 weeks after the treatment stopped. Graphs show organs, body weights and blood cell populations with 6 mice/group (B), 4 mice/group (C). Error bars are SEM.
To assess the safety of SMAC mimetic plus p38 inhibitor C57BL6 mice were injected by intra-peritoneal route twice a week for 4 weeks with either vehicle (6% Captisol) or 15 mg/kg of LY222820 or 5 mg/kg birinapant ±15 mg/kg LY2228820, or 10 mg/kg birinapant±15 mg/kg LY2228820. Another cohort received either vehicle or 5 mg/kg of GT13072, or 15 mg/kg of LY222820 or combination.
200 μL of blood was collected from the retro-orbital plexus into tubes containing potassium ethylenediaminetetraacetic acid (Sarstedt) and analyzed in an Advia 2120 automated hematologic analyzer (Bayer).

Data set [3] relates to low- and intermediate-1-risk Myelodysplastic syndromes. Conditions: oral administration, Phase I/II; cited from earlier work.
The subject of data set [4] is advanced solid tumours and lymphoma. The note with it: intravenous administration, Phase I; cited from earlier work.
The subject of data set [5] is human AML patient samples. The data set is described as follows: Response of human AML patient samples to Birinapant in vitro. It counts as cell-based.

`CC(C)(C)Cn1c(N)nc2ccc(-c3[nH]c(C(C)(C)C)nc3-c3ccc(F)cc3)nc21` [LY2228820]: the “cell death induced by SMAC mimetics” value in data set [1] was “dramatically increased cell death”. For the same molecule, the “TNF production of three different smac-mimetics (CompA, GT13072 and birinapant)” value in data set [2] was “increased TNF production”. In the data set on C57BL6 mice, the “effect of LY2228820 on populations of white blood cells (ADVIA analysis)” value is recorded as “nor affect the populations of white blood cells” and the “effect of LY2228820 on the splenomegaly induced by GT13072” value is “did not even exacerbate the splenomegaly”. Take `C[C@@H]1CN(Cc2ccc(F)cc2)[C@@H](C)CN1C(=O)c1cc2c(C(=O)C(=O)N(C)C)cn(C)c2cc1Cl` [Talmapimod]: in data set [3], the complete remission result is given as “only one patient achieved a complete remission” and the tolerability in patients result is recorded as “well tolerated”. Turning to `CCc1nc(-c2cccc(C)c2)c(-c2ccnc(NC(=O)c3ccccc3)c2)s1` [TAK-715], the “cell death induced by SMAC mimetics” value in data set [1] is on record as “dramatically increased cell death”.

Take `NC(=O)c1ccc(N(C(N)=O)c2c(F)cccc2F)nc1-c1ccc(F)cc1F` [VX-702]: in data set [1], the “cell death induced by SMAC mimetics” value is on record as “dramatically increased cell death”. Still for that read-out and setting: next, `O=c1ncn2nc(Sc3ccc(F)cc3F)ccc2c1-c1c(Cl)cccc1Cl` [VX-745]: “dramatically increased cell death”. As to `CC[C@H](NC(=O)[C@H](C)NC)C(=O)N1C[C@@H](O)C[C@H]1Cc1c(-c2[nH]c3cc(F)ccc3c2C[C@@H]2C[C@H](O)CN2C(=O)[C@H](CC)NC(=O)[C@H](C)NC)[nH]c2cc(F)ccc12` [Birinapant], in data set [4], the “anti-tumour activity in patients” value is on record as “evidence of anti-tumour activity” and the tolerability in patients result was “well tolerated with no dose-limiting toxicities”. In addition, in data set [5], the “response of human AML patient samples to single agent treatment” value is listed as “some human AML patient samples did not respond”.

For `Cc1ccc(-c2ccc3c(ccc4sc5c(c43)NC[C@@H](C)NC5=O)n2)cn1` [PF-3644022], the “cell death induced by SMAC mimetics” value in data set [1] is recorded as “dramatically increased cell death”.
